Test results as given in patent publication US11339170B1, “Spiropyrrolidine derived antiviral agents” (priority 2021, dated 2022).
Where two headings read alike, the source gives them in different places.

What was measured:
[1] = tested on: 229E human corona virus (hCoV); assay: 229E live virus assay (CPE, ATPlite readout) in MRC-5 cells; format: cell-based, hCoV-229E; settings: Human coronavirus 229E, MRC5, 144 h, read-out: 229E EC50
SARS-CoV-2 3CL-protease = SARS-CoV-2 3CL-protease (Severe acute respiratory syndrome coronavirus 2 (2019-nCoV) (SARS-CoV-2), UniProt P0DTD1); assay: SARS-CoV-2 3C-like (3CL) protease fluorescence assay (FRET); format: biochemical

CC(C)C[C@@H](C(=O)N1C[C@]2(C[C@H]1C#N)C(=O)Nc1ccccc12)N(C)C(=O)C(=O)Nc1n[nH]c2ccccc12 [Compound 19]
EC50 ([1]; MRC-5 cells, MOI 0.05, 6 days at 34° C., ATPlite, duplicate): < 100 nM | IC50 (SARS-CoV-2 3CL-protease; recombinant SARS-CoV-2 3CL-protease 10 nM, 30 min preincubation, duplicate, read-out: FRET IC50): < 100 nM

CC(C)C[C@@H](C(=O)N1C[C@]2(C[C@H]1C#N)C(=O)Nc1ccccc12)N(C)C(=O)C(=O)Nc1nc2ccccc2o1 [Compound 53]
EC50 [1]: 100 to 1000 nM | IC50 (SARS-CoV-2 3CL-protease): > 1000 nM

CC(C)C[C@@H](C(=O)N1C[C@]2(C[C@H]1C#N)C(=O)Nc1ccccc12)N(C)C(=O)C(=O)N(C)c1ccc(F)cc1 [Compound 10]
EC50 [1]: < 100 nM | IC50 (SARS-CoV-2 3CL-protease): < 100 nM

CC(C)C[C@@H](C(=O)N1C[C@]2(C[C@H]1C#N)C(=O)Nc1ccccc12)N(C)C(=O)C(=O)Nc1ccc(F)cc1 [Compound 4]
EC50 [1]: < 100 nM | IC50 (SARS-CoV-2 3CL-protease): < 100 nM

[2H]C([2H])([2H])N(C(=O)C(=O)Nc1ccc(F)cc1)[C@@H](CC(C)(C)C)C(=O)N1C[C@]2(C[C@H]1C#N)C(=O)Nc1ccccc12 [Compound 22]
EC50 [1]: < 100 nM | IC50 (SARS-CoV-2 3CL-protease): < 100 nM

CC(C)C[C@@H](C(=O)N1C[C@]2(C[C@H]1C#N)C(=O)Nc1ccccc12)N(C)C(=O)C(=O)Nc1nc2ccccc2s1 [Compound 17]
EC50 [1]: < 100 nM | IC50 (SARS-CoV-2 3CL-protease): < 100 nM

CC(C)C[C@@H](C(=O)N1C[C@]2(C[C@H]1C#N)C(=O)Nc1ccccc12)N(C)C(=O)C(=O)c1ccc(F)cc1 [Compound 41]
EC50 [1]: < 100 nM | IC50 (SARS-CoV-2 3CL-protease): < 100 nM

CN(C(=O)C(=O)Nc1ccc(F)cc1)[C@@H](CC(C)(C)C)C(=O)N1C[C@]2(C[C@H]1C#N)C(=O)Nc1ccccc12 [Compound 21]
EC50 [1]: < 100 nM | IC50 (SARS-CoV-2 3CL-protease): < 100 nM
